The test system of test [1] is Plasmodium berghei. The test can be described thus: Antimalarial activity against Plasmodium berghei infected in mouse. Type of test: functional.
For test [2], the system named is Plasmodium falciparum. Briefly: Antimalarial activity against Plasmodium falciparum assessed as growth inhibition. Type of test: functional, organism-based.
The test system of test [3] is Plasmodium falciparum. The test can be described thus: Antimalarial activity against chloroquine-sensitive Plasmodium falciparum FCR-3 assessed as growth inhibition. Type of test: functional, organism-based.

Molecules are shown by their SMILES. pEC50: −log10 of the molar value.

For the compound `O=C(C[C@H]1NCCC[C@@H]1O)Cn1cnc2ccc(O)cc2c1=O`, the ED50 (commonly the dose that gives a 50% effect, or the effect in half of the subjects) in test [1] is 0.3 mg/kg/day.
As to `O=c1c2ccccc2ncn1C[C@@H]1C[C@@H]2[C@@H](O)CCCN2CO1`, the pEC50 (as a rule, −log10 of the EC50, conventionally taken in molar units) in test [2] was 8.43.
As for `COCO[C@H]1CCCN2CO[C@H](Cn3cnc4ccccc4c3=O)C[C@H]12`, in test [2], the pEC50 is 8.07.
On the same count and under the same terms, next, `CC(=O)O[C@H]1CCCN(C(C)=O)[C@@H]1CC(=O)Cn1cnc2ccccc2c1=O`: 6.04; `CCOC(=O)N1CCC[C@H](O)[C@H]1CC(=O)Cn1cnc2ccccc2c1=O`: 5.32; `O=C(C[C@H]1NCCCC1=O)Cn1cnc2ccccc2c1=O`: 7.70.
In test [1], `O=C(C[C@H]1NCC[C@H](O)[C@@H]1O)Cn1cnc2ccccc2c1=O` displayed an ED50 of 2.4 mg/kg/day.
Consider `O=C(C[C@@H]1NCCC[C@H]1O)Cn1cnc2ccccc2c1=O` (stereo in doubt; (+)-1) [FEBRIFUGINE], for which the pEC50 in test [3] was 10.12. This compound yielded an ED50 in test [1] of 0.6 mg/kg/day.
Regarding `O=C(C[C@@H]1NCCC[C@H]1O)Cn1cnc2ccccc2c1=O` (stereo in doubt; (-)-1) [FEBRIFUGINE], the pEC50 in test [3] was 6.70.
